Measurements reported in patent US6355799B1, “Substituted benzene compounds, process for their preparation, and herbicidal and defoliant compositions containing them” (ISK Americas Incorporated, priority 1997, dated 2002).

Columns and labels:
Assay type in all cases: in vivo
[1] = test system: field corn (Zea mays L., var. Dekalb 535, CORN); assay: Pre-emerge test, crop safety; conditions: rated 14 days after application, 0 = no damage, 100 = complete death
In short: (§1)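 Sandy loam pots; pre-emerge: sown 1 d pre-spray, surface-watered after, then bottom-watered. Post-emerge: sown 8–21 d before, 2–3 leaf stage, + 0.25% v/v NIS, bottom-watered. Acetone, 187 l/ha track spray, 15–1000 g ai/ha. 0–100 injury score, day 14.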

[2] = test system: upland rice (Oryza sp., var. Tebonnet, RICE); assay: Pre-emerge test, crop safety; conditions: rated 14 days after application, 0 = no damage, 100 = complete death
In short: as §1

[3] = test system: redroot pigweed (Amaranthus retroflexus, AMARE); assay: Pre-emerge test, greenhouse herbicide activity screening; conditions: rated 14 days after application, 0 = no damage, 100 = complete death
In short: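 Rating: 0–100 visual injury, 14 DAA. Application: acetone, 187 l/ha, 15–1000 g ai/ha, flat-fan track sprayer with nozzle 40–45 cm above soil or canopy. Post-emerge runs used 0.25% v/v surfactant on 2–3 leaf plants.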

[4] = test system: green foxtail (Setaria viridis, SETVI); assay: Post-emerge test, greenhouse herbicide activity screening; conditions: post-emerge, 14 days after application, rating scale 0-100
In short: (§2)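 Compounds in acetone were track-sprayed at 15–1000 g ai/ha: pre-emergence onto soil sown the previous day, then top-watered to incorporate and later bottom-watered; post-emergence onto 2–3 leaf plants with 0.25% v/v surfactant, bottom-watered only. Ratings on a 0–100 phytotoxicity scale were taken at day 14.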

[5] = test system: common ragweed (Ambrosia artemisizfolia L., AMBEL); assay: as above; conditions: post-emerge, 14 days after application, rating scale 0-100
In short: as §2

[6] = test system: redroot pigweed (Amaranthus retroflexus, AMARE); assay: as above; conditions: post-emerge, 14 days after application, rating scale 0-100
In short: as §2

[7] = test system: velvetleaf (Abutilon theophrasti, ABUTH); assay: as above; conditions: post-emerge, 14 days after application, rating scale 0-100
In short: as §2

[8] = test system: johnsongrass (Sorghum halepense, SORHA); assay: as above; conditions: post-emerge, 14 days after application, rating scale 0-100
In short: as §2

[9] = test system: sicklepod (Cassia obtusifolia, CASOB); assay: as above; conditions: post-emerge, 14 days after application, rating scale 0-100
In short: as §2

[10] = test system: large crabgrass (Digitaria sanguinalis, DIGSA); assay: as above; conditions: post-emerge, 14 days after application, rating scale 0-100
In short: as §2

[11] = test system: barnyardgrass (Echinochloa crus-galli, ECHCG); assay: as above; conditions: post-emerge, 14 days after application, rating scale 0-100
In short: as §2

[12] = test system: ivyleaf morningglory (Ipomoea hederacea, IPOHE); assay: as above; conditions: post-emerge, 14 days after application, rating scale 0-100
In short: as §2

[13] = test system: lambsquarters (Chenopodium album, CHEAL); assay: as above; conditions: post-emerge, 14 days after application, rating scale 0-100
In short: as §2

[14] = test system: field corn (Zea mays L., var. Dekalb 535, CORN); assay: Post-emerge test, crop safety; conditions: post-emerge, 14 days after application, rating scale 0-100
In short: (§3)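 Compounds in acetone were track-sprayed at 187 l/ha, 15–1000 g ai/ha, onto sandy loam pots. Pre-emerge seeds were sown one day before spraying, with surface watering afterwards. Post-emerge plants were at the 2–3 leaf stage and sprayed with 0.25% v/v non-ionic surfactant. Injury was rated 0–100 at 14 days.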

[15] = test system: upland rice (Oryza sp., var. Tebonnet, RICE); assay: Post-emerge test, crop safety; conditions: post-emerge, 14 days after application, rating scale 0-100
In short: as §3

[16] = test system: green foxtail (Setaria viridis, SETVI); assay: Pre-emerge test, greenhouse herbicide activity screening; conditions: rated 14 days after application, 0 = no damage, 100 = complete death
In short: as §3

[17] = test system: common ragweed (Ambrosia artemisizfolia L., AMBEL); assay: as above; conditions: rated 14 days after application, 0 = no damage, 100 = complete death
In short: as §3

[18] = test system: velvetleaf (Abutilon theophrasti, ABUTH); assay: as above; conditions: rated 14 days after application, 0 = no damage, 100 = complete death
In short: as §3

[19] = test system: johnsongrass (Sorghum halepense, SORHA); assay: as above; conditions: rated 14 days after application, 0 = no damage, 100 = complete death
In short: as §3

[20] = test system: sicklepod (Cassia obtusifolia, CASOB); assay: as above; conditions: rated 14 days after application, 0 = no damage, 100 = complete death
In short: as §3

[21] = test system: large crabgrass (Digitaria sanguinalis, DIGSA); assay: as above; conditions: rated 14 days after application, 0 = no damage, 100 = complete death
In short: as §3

[22] = test system: barnyardgrass (Echinochloa crus-galli, ECHCG); assay: as above; conditions: rated 14 days after application, 0 = no damage, 100 = complete death
In short: as §3

[23] = test system: ivyleaf morningglory (Ipomoea hederacea, IPOHE); assay: as above; conditions: rated 14 days after application, 0 = no damage, 100 = complete death
In short: as §3

[24] = test system: lambsquarters (Chenopodium album, CHEAL); assay: as above; conditions: rated 14 days after application, 0 = no damage, 100 = complete death
In short: as §3

COc1c(Cl)cc(F)c(-n2c(=O)cc(C(F)(F)F)n(C)c2=O)c1N(C(=O)c1ccc(Cl)nc1)C(=O)c1ccc(Cl)nc1 [2-100]
Pre-emerge phytotoxicity rating (0-100), crop damage, CORN ([1]; 63 g ai/ha): 45 | Pre-emerge phytotoxicity rating (0-100), crop damage, CORN ([1]; 250 g ai/ha): 95 | Pre-emerge phytotoxicity rating (0-100), crop damage, RICE ([2]; 63 g ai/ha): 75 | Pre-emerge phytotoxicity rating (0-100), crop damage, RICE ([2]; 250 g ai/ha): 90 | Pre-emerge Herbicidal Activity, phytotoxicity rating (0-100), AMARE ([3]; 63 g ai/ha): 100 | Pre-emerge Herbicidal Activity, phytotoxicity rating (0-100), AMARE ([3]; 250 g ai/ha): 100 | phytotoxicity rating SETVI ([4]; 63 g ai/ha): 60 | phytotoxicity rating SETVI ([4]; 250 g ai/ha): 70 | phytotoxicity rating AMBEL ([5]; 63 g ai/ha): 70 | phytotoxicity rating AMBEL ([5]; 250 g ai/ha): 90 | phytotoxicity rating AMARE ([6]; 63 g ai/ha): 80 | phytotoxicity rating AMARE ([6]; 250 g ai/ha): 100 | phytotoxicity rating ABUTH ([7]; 63 g ai/ha): 100 | phytotoxicity rating ABUTH ([7]; 250 g ai/ha): 100 | phytotoxicity rating SORHA ([8]; 63 g ai/ha): 0 | phytotoxicity rating SORHA ([8]; 250 g ai/ha): 60 | phytotoxicity rating CASOB ([9]; 63 g ai/ha): 70 | phytotoxicity rating CASOB ([9]; 250 g ai/ha): 60 | phytotoxicity rating DIGSA ([10]; 63 g ai/ha): 0 | phytotoxicity rating DIGSA ([10]; 250 g ai/ha): 20 | phytotoxicity rating ECHCG ([11]; 63 g ai/ha): 0 | phytotoxicity rating ECHCG ([11]; 250 g ai/ha): 30 | phytotoxicity rating IPOHE ([12]; 63 g ai/ha): 100 | phytotoxicity rating IPOHE ([12]; 250 g ai/ha): 100 | phytotoxicity rating CHEAL ([13]; 63 g ai/ha): 80 | phytotoxicity rating CHEAL ([13]; 250 g ai/ha): 80 | phytotoxicity rating CORN ([14]; 63 g ai/ha): 15 | phytotoxicity rating CORN ([14]; 250 g ai/ha): 80 | phytotoxicity rating RICE ([15]; 63 g ai/ha): 45 | phytotoxicity rating RICE ([15]; 250 g ai/ha): 70 | Pre-emerge Herbicidal Activity, phytotoxicity rating (0-100), SETVI ([16]; 63 g ai/ha): 100 | Pre-emerge Herbicidal Activity, phytotoxicity rating (0-100), SETVI ([16]; 250 g ai/ha): 100 | Pre-emerge Herbicidal Activity, phytotoxicity rating (0-100), AMBEL ([17]; 63 g ai/ha): 90 | Pre-emerge Herbicidal Activity, phytotoxicity rating (0-100), AMBEL ([17]; 250 g ai/ha): 100 | Pre-emerge Herbicidal Activity, phytotoxicity rating (0-100), ABUTH ([18]; 63 g ai/ha): 100 | Pre-emerge Herbicidal Activity, phytotoxicity rating (0-100), ABUTH ([18]; 250 g ai/ha): 100 | Pre-emerge Herbicidal Activity, phytotoxicity rating (0-100), SORHA ([19]; 63 g ai/ha): 85 | Pre-emerge Herbicidal Activity, phytotoxicity rating (0-100), SORHA ([19]; 250 g ai/ha): 100 | Pre-emerge Herbicidal Activity, phytotoxicity rating (0-100), CASOB ([20]; 63 g ai/ha): 30 | Pre-emerge Herbicidal Activity, phytotoxicity rating (0-100), CASOB ([20]; 250 g ai/ha): 100 | Pre-emerge Herbicidal Activity, phytotoxicity rating (0-100), DIGSA ([21]; 63 g ai/ha): 90 | Pre-emerge Herbicidal Activity, phytotoxicity rating (0-100), DIGSA ([21]; 250 g ai/ha): 100 | Pre-emerge Herbicidal Activity, phytotoxicity rating (0-100), ECHCG ([22]; 63 g ai/ha): 70 | Pre-emerge Herbicidal Activity, phytotoxicity rating (0-100), ECHCG ([22]; 250 g ai/ha): 90 | Pre-emerge Herbicidal Activity, phytotoxicity rating (0-100), IPOHE ([23]; 63 g ai/ha): 100 | Pre-emerge Herbicidal Activity, phytotoxicity rating (0-100), IPOHE ([23]; 250 g ai/ha): 100 | Pre-emerge Herbicidal Activity, phytotoxicity rating (0-100), CHEAL ([24]; 63 g ai/ha): 100 | Pre-emerge Herbicidal Activity, phytotoxicity rating (0-100), CHEAL ([24]; 250 g ai/ha): 100
